# Test results from patent publication US11046696B2, “Fused pyrimidine compound or salt thereof” (TAIHO PHARMACEUTICAL CO., LTD., priority 2016, dated 2021).
# Test: Evaluation of stability in liver microsome
# Conditions: mouse liver microsome, 1 μM, 37° C. for 30 minutes
row,Remaining (%),SMILES
1,68,"COCc1ccc(NC(=O)c2c(OCC3CCOCC3)n(C3(C)CC3)c3ncnc(N)c23)cc1 [Example 141, 4-amino-N-(4-(methoxymethyl)phenyl)-7-(1-methylcyclopropyl)-6-((tetrahydro-2H-pyran-4-yl)methoxy)-7H-pyrrolo[2,3-d]pyrimidine-5-carboxamide]"
2,68,"COCc1ccc(NC(=O)c2c(C#CCC3(O)CCOCC3)n(C3(C)CC3)c3ncnc(N)c23)cc1 [Example 143, 4-amino-6-(3-(4-hydroxytetrahydro-2H-pyran-4-yl)prop-1-yn-1-yl)-N-(4-(methoxymethyl)phenyl)-7-(1-methylcyclopropyl)-7H-pyrrolo[2,3-d]pyrimidine-5-carboxamide]"
3,79,"COCc1ccc(NC(=O)c2c(C#Cc3cnn(C(C)C)c3)n(C3(C)CC3)c3ncnc(N)c23)cc1 [Example 144, 4-amino-6-((1-isopropyl-1H-pyrazol-4-yl)ethynyl)-N-(4-(methoxymethyl)phenyl)-7-(1-methylcyclopropyl)-7H-pyrrolo[2,3-d]pyrimidine-5-carboxamide]"
4,72,"COCc1ccc(NC(=O)c2c(-c3ccc(CO)cc3)n(C3(C)CC3)c3ncnc(N)c23)cc1 [Example 145, 4-amino-6-(4-(hydroxymethyl)phenyl)-N-(4-(methoxymethyl)phenyl)-7-(1-methylcyclopropyl)-7H-pyrrolo[2,3-d]pyrimidine-5-carboxamide]"
5,68,"COCc1ccc(NC(=O)c2c(-c3ccc(NC(C)=O)nc3)n(C3(C)CC3)c3ncnc(N)c23)cc1 [Example 147, 6-(6-acetamidopyridin-3-yl)-4-amino-N-(4-(methoxymethyl)phenyl)-7-(1-methylcyclopropyl)-7H-pyrrolo[2,3-d]pyrimidine-5-carboxamide]"
6,61,"COCc1ccc(NC(=O)c2c(-c3ccc(O)cc3)n(C3(C)CC3)c3ncnc(N)c23)cc1 [Example 148, 4-amino-6-(4-hydroxyphenyl)-N-(4-(methoxymethyl)phenyl)-7-(1-methylcyclopropyl)-7H-pyrrolo[2,3-d]pyrimidine-5-carboxamide]"
7,62,"C=C(C)c1c(C(=O)Nc2ccc(COC)cc2)c2c(N)ncnc2n1C1(C)CC1 [Example 149, 4-amino-N-(4-(methoxymethyl)phenyl)-7-(1-methylcyclopropyl)-6-(prop-1-en-2-yl)-7H-pyrrolo[2,3-d]pyrimidine-5-carboxamide]"
8,78,"COCc1ccc(NC(=O)c2c(-c3cnn(C)c3)n(C3(C)CC3)c3ncnc(N)c23)cc1 [Example 150, 4-amino-N-(4-(methoxymethyl)phenyl)-6-(1-methyl-1H-pyrazol-4-yl)-7-(1-methylcyclopropyl)-7H-pyrrolo[2,3-d]pyrimidine-5-carboxamide]"
9,57,"COCc1ccc(NC(=O)c2c(C#CCC3CCOCC3)n(C3(C)CC3)c3ncnc(N)c23)cc1 [Example 152, 4-amino-N-(4-(methoxymethyl)phenyl)-7-(1-methylcyclopropyl)-6-(3-(tetrahydro-2H-pyran-4-yl)prop-1-yn-1-yl)-7H-pyrrolo[2,3-d]pyrimidine-5-carboxamide]"
10,50,"COCc1ccc(NC(=O)c2c(-c3ccccc3)n(C3(C)CC3)c3ncnc(N)c23)cc1 [Example 154, 4-amino-N-(4-(methoxymethyl)phenyl)-7-(1-methylcyclopropyl)-6-phenyl-7H-pyrrolo[2,3-d]pyrimidine-5-carboxamide]"
11,64,"COCc1ccc(NC(=O)c2c(C#Cc3ccc(N)nc3)n(C3(C)CC3)c3ncnc(N)c23)cc1 [Example 155, 4-amino-6-((6-aminopyridin-3-yl)ethynyl)-N-(4-(methoxymethyl)phenyl)-7-(1-methylcyclopropyl)-7H-pyrrolo[2,3-d]pyrimidine-5-carboxamide]"
12,67,"COCc1ccc(NC(=O)c2c(C#CCC3NC(=O)NC3=O)n(C3(C)CC3)c3ncnc(N)c23)cc1 (centres unmarked) [Example 156, 4-amino-6-(3-(2,5-dioxoimidazolidin-4-yl)prop-1-yn-1-yl)-N-(4-(methoxymethyl)phenyl)-7-(1-methylcyclopropyl)-7H-pyrrolo[2,3-d]pyrimidine-5-carboxamide]"
13,59,"CCC(O)CC#Cc1c(C(=O)Nc2ccc(COC)cc2)c2c(N)ncnc2n1C1(C)CC1 (centres unmarked) [Example 157, 4-amino-6-(4-hydroxyhex-1-yn-1-yl)-N-(4-(methoxymethyl)phenyl)-7-(1-methylcyclopropyl)-7H-pyrrolo[2,3-d]pyrimidine-5-carboxamide]"
14,85,"COCc1ccc(NC(=O)c2c(C#Cc3ccc4c(c3)NCCO4)n(C3(C)CC3)c3ncnc(N)c23)cc1 [Example 158, 4-amino-6-((3,4-dihydro-2H-benzo[b][1,4]oxazin-6-yl)ethynyl)-N-(4-(methoxymethyl)phenyl)-7-(1-methylcyclopropyl)-7H-pyrrolo[2,3-d]pyrimidine-5-carboxamide]"
15,78,"COCc1ccc(NC(=O)c2c(C#Cc3cnc4ccoc4c3)n(C3(C)CC3)c3ncnc(N)c23)cc1 [Example 159, 4-amino-6-(furo[3,2-b]pyridin-6-ylethynyl)-N-(4-(methoxymethyl)phenyl)-7-(1-methylcyclopropyl)-7H-pyrrolo[2,3-d]pyrimidine-5-carboxamide]"
16,68,"COCc1ccc(NC(=O)c2c(C#Cc3ccc[nH]3)n(C3(C)CC3)c3ncnc(N)c23)cc1 [Example 161, 6-((1H-pyrrol-2-yl)ethynyl)-4-amino-N-(4-(methoxymethyl)phenyl)-7-(1-methylcyclopropyl)-7H-pyrrolo[2,3-d]pyrimidine-5-carboxamide]"
17,76,"COCc1ccc(NC(=O)c2c(C#Cc3ccccc3)n(C3(C)CC3)c3ncnc(N)c23)cc1 [Example 162, 4-amino-N-(4-(methoxymethyl)phenyl)-7-(1-methylcyclopropyl)-6-(phenylethynyl)-7H-pyrrolo[2,3-d]pyrimidine-5-carboxamide]"
18,90,"COCc1ccc(NC(=O)c2c(C#Cc3ccc(OC)cc3)n(C3(C)CC3)c3ncnc(N)c23)cc1 [Example 165, 4-amino-N-(4-(methoxymethyl)phenyl)-6-((4-methoxypheny)ethynyl)-7-(1-methylcyclopropyl)-7H-pyrrolo[2,3-d]pyrimidine-5-carboxamide]"
19,80,"COCc1ccc(NC(=O)c2c(-c3cn[nH]c3)n(C3(C)CC3)c3ncnc(N)c23)cc1 [Example 167, 4-amino-N-(4-(methoxymethyl)phenyl)-7-(1-methylcyclopropyl)-6-(1H-pyrazol-4-yl)-7H-pyrrolo[2,3-d]pyrimidine-5-carboxamide]"
20,77,"COCc1ccc(NC(=O)c2c(-c3ccc(N4CCN(C)CC4)cc3)n(C3(C)CC3)c3ncnc(N)c23)cc1 [Example 171, 4-amino-N-(4-(methoxymethyl)phenyl)-7-(1-methylcyclopropyl)-6-(4-(4-methylpiperazin-1-yl)phenyl)-7H-pyrrolo[2,3-d]pyrimidine-5-carboxamide]"
21,61,"COCc1ccc(NC(=O)c2c(C#Cc3ccccn3)n(C3(C)CC3)c3ncnc(N)c23)cc1 [Example 172, 4-amino-N-[4-(methoxymethyl)phenyl]-7-(1-methylcyclopropyl)-6-(pyridin-2-ylethynyl)-7H-pyrrolo[2,3-d]pyrimidine-5-carboxamide]"
22,72,"COCc1ccc(NC(=O)c2c(C#CC(C)(C)O)n(C3(C)CC3)c3ncnc(N)c23)cc1 [Example 174, 4-amino-6-(3-hydroxy-3-methylbut-1-yn-1-yl)-N-(4-(methoxymethyl)phenyl)-7-(1-methylcyclopropyl)-7H-pyrrolo[2,3-d]pyrimidine-5-carboxamide]"
23,66,"COCc1ccc(NC(=O)c2c(C#Cc3cncc(F)c3)n(C3(C)CC3)c3ncnc(N)c23)cc1 [Example 175, 4-amino-6-((5-fluoropyridin-3-yl)ethynyl)-N-(4-(methoxymethyl)phenyl)-7-(1-methylcyclopropyl)-7H-pyrrolo[2,3-d]pyrimidine-5-carboxamide]"
24,70,"COCc1ccc(NC(=O)c2c(C#Cc3ccsc3)n(C3(C)CC3)c3ncnc(N)c23)cc1 [Example 176, 4-amino-N-(4-(methoxymethyl)phenyl)-7-(1-methylcyclopropyl)-6-(thiophen-3-ylethynyl)-7H-pyrrolo[2,3-d]pyrimidine-5-carboxamide]"
25,72,"COCc1ccc(NC(=O)c2c(C#CC3(O)CCOC3)n(C3(C)CC3)c3ncnc(N)c23)cc1 (centres unmarked) [Example 177, 4-amino-6-((3-hydroxytetrahydrofuran-3-yl)ethynyl)-N-(4-(methoxymethyl)phenyl)-7-(1-methylcyclopropyl)-7H-pyrrolo[2,3-d]pyrimidine-5-carboxamide]"
26,88,"COCc1ccc(NC(=O)c2c(C#CCN3CC[S+]([O-])CC3)n(C3(C)CC3)c3ncnc(N)c23)cc1 [Example 178, 4-amino-N-(4-(methoxymethyl)phenyl)-7-(1-methylcyclopropyl)-6-(3-(1-oxidethiomorpholino)prop-1-yn-1-yl)-7H-pyrrolo[2,3-d]pyrimidine-5-carboxamide]"
27,85,"COCc1ccc(NC(=O)c2c(-c3ccc(CO)nc3)n(C3(C)CC3)c3ncnc(N)c23)cc1 [Example 179, 4-amino-6-(6-(hydroxymethyl)pyridin-3-yl)-N-(4-(methoxymethyl)phenyl)-7-(1-methylcyclopropyl)-7H-pyrrolo[2,3-d]pyrimidine-5-carboxamide]"
28,62,"COCc1ccc(NC(=O)c2c(C#Cc3cn(C)nc3C)n(C3(C)CC3)c3ncnc(N)c23)cc1 [Example 181, 4-amino-6-((1,3-dimethyl-1H-pyrazol-4-yl)ethynyl)-N-(4-(methoxymethyl)phenyl)-7-(1-methylcyclopropyl)-7H-pyrrolo[2,3-d]pyrimidine-5-carboxamide]"
29,61,"COCc1ccc(NC(=O)c2c(C#Cc3cnn(C)c3C)n(C3(C)CC3)c3ncnc(N)c23)cc1 [Example 182, 4-amino-6-((1,5-dimethyl-1H-pyrazol-4-yl)ethynyl)-N-(4-(methoxymethyl)phenyl)-7-(1-methylcyclopropyl)-7H-pyrrolo[2,3-d]pyrimidine-5-carboxamide]"
